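Where inhibition never reached the appropriate level, the endpoint shown equals the highest concentration tested. Otherwise, values were interpolated linearly from a five-concentration, 48-hour dose response in 96-well plates. Definition used: TGI = concentration required for complete inhibition of growth.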
How the values were obtained:
Experiment in all cases: inhibition of tumour cell growth, NCI panel, 48 h
[1] = tested on: IGROV1 ovarian
[2] = tested on: MCF7 breast
[3] = tested on: ACHN renal
[4] = tested on: KM12 colon
[5] = tested on: MALME-3M melanoma
[6] = tested on: UO-31 renal
[7] = tested on: HOP-92 NSCLC
[8] = tested on: SK-MEL-2 melanoma
[9] = tested on: SF-295 CNS
[10] = tested on: COLO 205 colon
[11] = tested on: SN12C renal
[12] = tested on: MDA-MB-435
[13] = tested on: MDA-N
[14] = tested on: SK-MEL-28 melanoma
[15] = tested on: SF-539 CNS
[16] = tested on: HCT-15 colon
[17] = tested on: PC-3 prostate
[18] = tested on: SK-MEL-5 melanoma
[19] = tested on: SK-OV-3 ovarian
[20] = tested on: SR leukemia
[21] = tested on: CAKI-1 renal
[22] = tested on: TK-10 renal
[23] = tested on: HT29 colon
[24] = tested on: OVCAR-5 ovarian
[25] = tested on: U251 CNS
[26] = tested on: SW-620 colon
[27] = tested on: MOLT-4 leukemia
[28] = tested on: OVCAR-8 ovarian
[29] = tested on: A498 renal
[30] = tested on: HL-60(TB) leukemia
[31] = tested on: HOP-62 NSCLC
[32] = tested on: DU-145 prostate
[33] = tested on: NCI-H460 lung
[34] = tested on: SNB-19 CNS
[35] = tested on: SF-268 CNS
[36] = tested on: SNB-75 CNS
[37] = tested on: HS 578T breast
[38] = tested on: CCRF-CEM leukemia
[39] = tested on: OVCAR-4 ovarian
[40] = tested on: 786-0 renal
[41] = tested on: EKVX NSCLC
[42] = tested on: HCT-116 colon
[43] = tested on: T-47D breast
[44] = tested on: OVCAR-3 ovarian
[45] = tested on: BT-549 breast
[46] = tested on: NCI-H226 lung
[47] = tested on: NCI-H23 lung
[48] = tested on: NCI-H522 lung
[49] = tested on: UACC-257 melanoma
[50] = tested on: NCI/ADR-RES ovarian
[51] = tested on: M14 melanoma
[52] = tested on: LOX IMVI melanoma
[53] = tested on: RXF 393 renal
[54] = tested on: A549 NSCLC
[55] = tested on: UACC-62 melanoma
[56] = tested on: HCC-2998 colon
[57] = tested on: MDA-MB-231 breast
[58] = tested on: K-562 leukemia
[59] = tested on: RPMI-8226 leukemia

Structure (SMILES): COc1cc(Oc2nc3cc(F)c(F)cc3nc2-c2ccccc2)cc(OC)c1OC
- TGI [1]: > 100 µM
- TGI [2]: > 100 µM
- TGI [3]: > 100 µM
- TGI [4]: > 100 µM
- TGI [5]: 96.9 µM
- TGI [6]: > 100 µM
- TGI [7]: > 100 µM
- TGI [8]: > 100 µM
- TGI [9]: > 100 µM
- TGI [10]: > 100 µM
- TGI [11]: > 100 µM
- TGI [12]: > 100 µM
- TGI [13]: > 100 µM
- TGI [14]: > 100 µM
- TGI [15]: 58.7 µM
- TGI [16]: > 100 µM
- TGI [17]: > 100 µM
- TGI [18]: 75.3 µM
- TGI [19]: > 100 µM
- TGI [20]: > 100 µM
- TGI [21]: > 100 µM
- TGI [22]: > 100 µM
- TGI [23]: > 100 µM
- TGI [24]: > 100 µM
- TGI [25]: > 100 µM
- TGI [26]: > 100 µM
- TGI [27]: > 100 µM
- TGI [28]: > 100 µM
- TGI [29]: > 100 µM
- TGI [30]: > 100 µM
- TGI [31]: > 100 µM
- TGI [32]: > 100 µM
- TGI [33]: > 100 µM
- TGI [34]: > 100 µM
- TGI [35]: > 100 µM
- TGI [36]: 51.2 µM
- TGI [37]: > 100 µM
- TGI [38]: > 100 µM
- TGI [39]: > 100 µM
- TGI [40]: > 100 µM
- TGI [41]: > 100 µM
- TGI [42]: > 100 µM
- TGI [43]: > 100 µM
- TGI [44]: > 100 µM
- TGI [45]: > 100 µM
- TGI [46]: > 100 µM
- TGI [47]: > 100 µM
- TGI [48]: > 100 µM
- TGI [49]: > 100 µM
- TGI [50]: > 100 µM
- TGI [51]: > 100 µM
- TGI [52]: > 100 µM
- TGI [53]: > 100 µM
- TGI [54]: > 100 µM
- TGI [55]: > 100 µM

Structure (SMILES): Oc1ccc(Oc2cc3c(cc2Oc2ccc(O)cc2)-c2nc-3nc3[nH]c(nc4nc(nc5[nH]c(n2)c2cc(Oc6ccc(O)cc6)c(Oc6ccc(O)cc6)cc52)-c2cc(Oc5ccc(O)cc5)c(Oc5ccc(O)cc5)cc2-4)c2cc(Oc4ccc(O)cc4)c(Oc4ccc(O)cc4)cc32)cc1
- TGI [1]: > 100 µM
- TGI [2]: > 100 µM
- TGI [3]: > 100 µM
- TGI [4]: > 100 µM
- TGI [5]: 47 µM
- TGI [6]: > 100 µM
- TGI [7]: > 100 µM
- TGI [9]: 95.6 µM
- TGI [10]: > 100 µM
- TGI [11]: > 100 µM
- TGI [12]: > 100 µM
- TGI [13]: > 100 µM
- TGI [14]: > 100 µM
- TGI [15]: > 100 µM
- TGI [16]: > 100 µM
- TGI [17]: > 100 µM
- TGI [18]: > 100 µM
- TGI [19]: > 100 µM
- TGI [20]: > 100 µM
- TGI [21]: > 100 µM
- TGI [22]: > 100 µM
- TGI [23]: > 100 µM
- TGI [24]: > 100 µM
- TGI [25]: > 100 µM
- TGI [26]: > 100 µM
- TGI [27]: > 100 µM
- TGI [56]: > 100 µM
- TGI [28]: > 100 µM
- TGI [31]: > 100 µM
- TGI [57]: 52.4 µM
- TGI [33]: > 100 µM
- TGI [34]: > 100 µM
- TGI [35]: > 100 µM
- TGI [36]: > 100 µM
- TGI [37]: > 100 µM
- TGI [38]: > 100 µM
- TGI [39]: > 100 µM
- TGI [40]: > 100 µM
- TGI [41]: > 100 µM
- TGI [42]: > 100 µM
- TGI [43]: > 100 µM
- TGI [44]: > 100 µM
- TGI [45]: > 100 µM
- TGI [58]: > 100 µM
- TGI [46]: > 100 µM
- TGI [47]: > 100 µM
- TGI [48]: > 100 µM
- TGI [49]: > 100 µM
- TGI [50]: > 100 µM
- TGI [51]: 30.3 µM
- TGI [52]: > 100 µM
- TGI [54]: > 100 µM
- TGI [55]: > 100 µM

Structure (SMILES): O=C(O)c1cccc(NC(C(=O)c2ccccc2)c2ccccc2)c1 (stereo unspecified)
- TGI [1]: > 100 µM
- TGI [2]: > 100 µM
- TGI [3]: > 100 µM
- TGI [4]: > 100 µM
- TGI [5]: > 100 µM
- TGI [6]: > 100 µM
- TGI [7]: > 100 µM
- TGI [8]: > 100 µM
- TGI [9]: > 100 µM
- TGI [10]: > 100 µM
- TGI [11]: > 100 µM
- TGI [12]: > 100 µM
- TGI [13]: > 100 µM
- TGI [14]: > 100 µM
- TGI [15]: > 100 µM
- TGI [16]: > 100 µM
- TGI [17]: > 100 µM
- TGI [18]: > 100 µM
- TGI [19]: > 100 µM
- TGI [20]: > 100 µM
- TGI [21]: > 100 µM
- TGI [22]: > 100 µM
- TGI [24]: > 100 µM
- TGI [25]: > 100 µM
- TGI [26]: > 100 µM
- TGI [27]: > 100 µM
- TGI [56]: > 100 µM
- TGI [28]: > 100 µM
- TGI [29]: > 100 µM
- TGI [30]: > 100 µM
- TGI [31]: > 100 µM
- TGI [59]: > 100 µM
- TGI [32]: > 100 µM
- TGI [57]: > 100 µM
- TGI [33]: > 100 µM
- TGI [34]: > 100 µM
- TGI [35]: > 100 µM
- TGI [37]: 80.6 µM
- TGI [38]: > 100 µM
- TGI [40]: > 100 µM
- TGI [41]: > 100 µM
- TGI [42]: > 100 µM
- TGI [43]: > 100 µM
- TGI [44]: > 100 µM
- TGI [58]: > 100 µM
- TGI [47]: > 100 µM
- TGI [48]: > 100 µM
- TGI [50]: > 100 µM
- TGI [51]: > 100 µM
- TGI [52]: > 100 µM
- TGI [53]: > 100 µM
- TGI [54]: > 100 µM
- TGI [55]: > 100 µM

Structure (SMILES): C#CC1=CC(=O)C(OC)=CC1=O
- TGI [2]: 35.8 µM
- TGI [3]: 11.3 µM
- TGI [4]: > 100 µM
- TGI [5]: 55.2 µM
- TGI [6]: 14.3 µM
- TGI [7]: 34 µM
- TGI [8]: 33.7 µM
- TGI [9]: > 100 µM
- TGI [10]: > 100 µM
- TGI [11]: 31.7 µM
- TGI [12]: 34.8 µM
- TGI [13]: 37.6 µM
- TGI [14]: > 100 µM
- TGI [15]: > 100 µM
- TGI [16]: 32.3 µM
- TGI [17]: > 100 µM
- TGI [18]: 40 µM
- TGI [19]: > 100 µM
- TGI [20]: 36.4 µM
- TGI [21]: 42.6 µM
- TGI [22]: > 100 µM
- TGI [23]: 62 µM
- TGI [24]: > 100 µM
- TGI [25]: > 100 µM
- TGI [26]: 40 µM
- TGI [27]: > 100 µM
- TGI [56]: 81.5 µM
- TGI [29]: > 100 µM
- TGI [30]: 13.4 µM
- TGI [31]: 36.6 µM
- TGI [59]: 49.6 µM
- TGI [32]: 37.4 µM
- TGI [57]: 34.8 µM
- TGI [33]: > 100 µM
- TGI [34]: > 100 µM
- TGI [35]: > 100 µM
- TGI [36]: 18.5 µM
- TGI [37]: > 100 µM
- TGI [38]: 30.8 µM
- TGI [40]: 20.1 µM
- TGI [41]: 68.1 µM
- TGI [42]: 40 µM
- TGI [43]: 87.5 µM
- TGI [44]: > 100 µM
- TGI [58]: > 100 µM
- TGI [46]: 42 µM
- TGI [47]: 60 µM
- TGI [48]: 4.2 µM
- TGI [49]: > 100 µM
- TGI [50]: > 100 µM
- TGI [51]: 39.1 µM
- TGI [52]: 40 µM
- TGI [53]: 30.1 µM
- TGI [54]: > 100 µM
- TGI [55]: 29.2 µM
